# Measured values as given in the supplement of paper PMC10307832.
# Legend:
# Experiment in all cases: relative viability (nuclei count vs DMSO), 5 days (fraction); higher = more cells survive
# Linsitinib + Alpelisib = compound: C[C@]1(O)C[C@@H](c2nc(-c3ccc4ccc(-c5ccccc5)nc4c3)c3c(N)nccn32)C1 [Linsitinib] + Cc1nc(NC(=O)N2CCC[C@H]2C(N)=O)sc1-c1ccnc(C(C)(C)C(F)(F)F)c1 [Alpelisib] (partner 2 µM)
# Outline: (§1)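 A single step with final 0.05% Triton X-100, 1% formaldehyde and 1 ug/ml Hoechst fixed the cells and stained nuclei 5 days after treatment. Lung cancer cell lines in 1536-well plates had been treated by pin tool the day after seeding with one drug alone or a fixed anchor-drug dose plus five library-drug doses (not always all listed) in √10 steps, and nuclei were counted on 4× images. Relative viability is the ratio of nuclei in treated wells to nuclei in vehicle wells, taken as the median of duplicate plates.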
# Linsitinib + Dasatinib = compound: C[C@]1(O)C[C@@H](c2nc(-c3ccc4ccc(-c5ccccc5)nc4c3)c3c(N)nccn32)C1 [Linsitinib] + Cc1nc(Nc2ncc(C(=O)Nc3c(C)cccc3Cl)s2)cc(N2CCN(CCO)CC2)n1 [Dasatinib] (partner 0.075 µM)
# Outline: as §1
# Ispinesib + Vorinostat = compound: Cc1ccc(C(=O)N(CCCN)[C@@H](c2nc3cc(Cl)ccc3c(=O)n2Cc2ccccc2)C(C)C)cc1 [Ispinesib] + O=C(CCCCCCC(=O)Nc1ccccc1)NO [Vorinostat] (partner 1 µM)
# Outline: as §1
# Linsitinib + Trametinib = compound: C[C@]1(O)C[C@@H](c2nc(-c3ccc4ccc(-c5ccccc5)nc4c3)c3c(N)nccn32)C1 [Linsitinib] + CC(=O)Nc1cccc(-n2c(=O)n(C3CC3)c(=O)c3c(Nc4ccc(I)cc4F)n(C)c(=O)c(C)c32)c1 [Trametinib] (partner 0.02 µM)
# Outline: as §1
Cell Line,relative viability (Linsitinib + Alpelisib; first compound 0.01 µM),relative viability (Linsitinib + Alpelisib; first compound 0.03162 µM),relative viability (Linsitinib + Alpelisib; first compound 0.1 µM),relative viability (Linsitinib + Alpelisib; first compound 1 µM),relative viability (Linsitinib + Dasatinib; first compound 0.01 µM),relative viability (Linsitinib + Dasatinib; first compound 0.03162 µM),relative viability (Linsitinib + Dasatinib; first compound 0.1 µM),relative viability (Linsitinib + Dasatinib; first compound 1 µM),relative viability (Ispinesib + Vorinostat; first compound 0.001 µM),relative viability (Ispinesib + Vorinostat; first compound 0.003162 µM),relative viability (Ispinesib + Vorinostat; first compound 0.01 µM),relative viability (Ispinesib + Vorinostat; first compound 0.03162 µM),relative viability (Ispinesib + Vorinostat; first compound 0.1 µM),relative viability (Linsitinib + Trametinib; first compound 0.01 µM),relative viability (Linsitinib + Trametinib; first compound 0.03162 µM),relative viability (Linsitinib + Trametinib; first compound 0.1 µM),relative viability (Linsitinib + Trametinib; first compound 1 µM),relative viability (Linsitinib + Alpelisib; first compound 0.3162 µM),relative viability (Linsitinib + Dasatinib; first compound 0.3162 µM),relative viability (Linsitinib + Trametinib; first compound 0.3162 µM)
HOP-62,0.862,1.09,0.949,0.933,0.65,0.692,0.643,0.565,0.685,0.631,0.949,0.667,0.25,0.405,0.39,0.427,0.368,–,–,–
LC-2-ad,0.84,0.73,0.822,0.733,0.481,0.31,0.385,0.236,0.718,0.697,0.765,0.321,0.19,0.906,0.718,0.942,0.827,0.633,0.271,0.864
NCI-H522,–,–,–,–,0.829,1.03,0.902,0.86,0.824,0.897,0.803,0.592,0.351,0.918,0.784,0.714,0.582,–,–,0.613
NCI-H322M,0.711,0.774,0.921,0.673,0.244,0.256,0.229,0.26,0.96,0.95,0.995,0.659,0.505,0.513,0.548,0.571,0.473,0.703,0.223,0.531
SK-LU-1,0.975,0.908,1.03,1.09,0.193,–,0.168,0.115,0.709,0.763,0.911,0.615,0.506,0.551,0.349,0.538,0.534,–,0.182,0.471
NCI-H1734,0.688,0.744,0.65,0.612,0.473,0.488,0.45,0.315,0.854,0.904,0.91,0.552,0.262,0.642,0.685,0.61,0.605,0.692,0.504,0.468
HCC-44,0.751,0.677,0.691,0.606,–,–,–,–,1.04,1.05,1.15,1.23,1.08,0.94,1.04,1.01,0.923,0.499,–,0.716
NCI-H1703,0.363,–,0.346,0.219,–,–,–,–,–,–,–,–,–,–,–,–,–,0.227,–,–
NCI-H2170,0.865,0.777,0.698,0.68,0.56,0.569,0.519,0.488,0.923,0.77,0.969,0.502,0.199,0.948,0.906,0.849,0.89,0.745,0.409,–
